According to patent publication US20260092179A1, “GENETICALLY MODIFIED HOST CELLS PRODUCING VIOLACEIN, ANALOGUES, AND DERIVATIVES THEREOF” (OCTARINE BIO APS, priority 2022, published 2026):

Tests used:
[1] = Temperature stability of dyed fabrics (colour fastness, ΔE); assay type: physicochemical; conditions: oven 80° c. for 4 h; for ΔE: before and after the stability test
Description: (§1) In order to assess the stability and colour fastness of violacein and violacein derivatives dyed onto fabrics, dyed fabrics were subjected to a number of conditions. Fabrics were dyed according to Example 18 and colour coordinates and colour change before and after exposure to a given condition were determined as described in Example 18. To measure temperature stability, fabrics were incubated in an oven set to 80° c. for 4 h. To measure stability under acid and alkaline conditions, fabrics were fully submerged in water solutions set to pH 8 with NaOH and pH 5 with HCl and incubated at room temperature for 30 minutes. Fabrics were then incubated at 37° c. for 4 h. To measure stability during laundering, fabrics were washed at 30° c. under the “mix” setting of a Siemens IQ300 washing machine, then dried in a Siemens IQ300 dryer until dry. To measure artificial light stability, fabrics were placed under an LED lamp at room temperature for 16 h. To measure UV light stability, fabrics were placed under a UV lamp at room temperature for 1 h.

S. cerevisiae S228c = assay: Antimicrobial activity of dyed Nylon 6,6 fabric: final OD600 and % inhibition; assay type: cell-based
E. coli DH5a = assay: as above; assay type: cell-based
[2] = Stability during laundering of dyed fabrics (colour fastness, ΔE); assay type: physicochemical; conditions: washed at 30° c.
Description: as §1

[3] = UV stability of dyed fabrics (colour fastness, ΔE); assay type: physicochemical; conditions: for ΔE: before vs after UV lamp, room temperature, 1 h
Description: as §1

[4] = Acrylic, after test (UV lamp, room temperature, 1 h)
[5] = Bleached cotton, after test (UV lamp, room temperature, 1 h)
[6] = Diacetate, after test (UV lamp, room temperature, 1 h)
[7] = Nylon 6,6, after test (UV lamp, room temperature, 1 h)
[8] = Polyester, after test (UV lamp, room temperature, 1 h)
[9] = Wool, after test (UV lamp, room temperature, 1 h)

SMILES: O=C1NC(c2c[nH]c3ccc(O)cc23)=C/C1=C1\C(=O)Nc2ccccc21 [violacein]
- L ([1]; Acrylic, After test): 62.99
- a ([1]; Acrylic, After test): 2.58
- b ([1]; Acrylic, After test): −1.01
- L ([1]; Acrylic, Before test): 64.83
- a ([1]; Acrylic, Before test): 1.28
- b ([1]; Acrylic, Before test): 1.7
- ΔE ([1]; Acrylic): 3.52
- L ([1]; Bleached cotton, After test): 59.33
- a ([1]; Bleached cotton, After test): 3.72
- b ([1]; Bleached cotton, After test): −8.18
- L ([1]; Bleached cotton, Before test): 60.51
- a ([1]; Bleached cotton, Before test): 2.66
- b ([1]; Bleached cotton, Before test): −6.54
- ΔE ([1]; Bleached cotton): 2.28
- L ([1]; Diacetate, After test): 41.38
- a ([1]; Diacetate, After test): 10.6
- b ([1]; Diacetate, After test): −12.61
- L ([1]; Diacetate, Before test): 43.1
- a ([1]; Diacetate, Before test): 8.4
- b ([1]; Diacetate, Before test): −12.5
- ΔE ([1]; Diacetate): 2.79
- L ([1]; Nylon 6,6, After test): 33.74
- a ([1]; Nylon 6,6, After test): 5.53
- b ([1]; Nylon 6,6, After test): −19.85
- L ([1]; Nylon 6,6, Before test): 34.91
- a ([1]; Nylon 6,6, Before test): 5
- b ([1]; Nylon 6,6, Before test): −20.42
- ΔE ([1]; Nylon 6,6): 1.41
- L ([1]; Polyester, After test): 67.81
- a ([1]; Polyester, After test): 4.37
- b ([1]; Polyester, After test): −3.55
- L ([1]; Polyester, Before test): 68.98
- a ([1]; Polyester, Before test): 3.25
- b ([1]; Polyester, Before test): −1.56
- ΔE ([1]; Polyester): 2.57
- L ([1]; Wool, After test): 67.34
- a ([1]; Wool, After test): 1.87
- b ([1]; Wool, After test): −0.17
- L ([1]; Wool, Before test): 67
- a ([1]; Wool, Before test): 1.5
- b ([1]; Wool, Before test): 0.36
- ΔE ([1]; Wool): 0.73
- Final OD600 (S. cerevisiae S228c; S. cerevisiae cultured overnight at 30° c. with dyed Nylon 6,6 fabric strip, starting OD600 0.1): 4.64
- % Inhibition (S. cerevisiae S228c; S. cerevisiae, dyed Nylon 6,6 fabric vs undyed fabric control): 13.43%
- Final OD600 (E. coli DH5a; E. coli cultured overnight at 30° c. with dyed Nylon 6,6 fabric strip, starting OD600 0.1): 4.16
- % Inhibition (E. coli DH5a; E. coli, dyed Nylon 6,6 fabric vs undyed fabric control): 20.24%
- growth inhibition of E. coli (E. coli DH5a; dyed Nylon 6,6 fabric strip in culture, overnight 30° c., OD600 versus undyed fabric): most inhibited
- L ([2]; Acrylic, After test): 76.54
- a ([2]; Acrylic, After test): 1.43
- b ([2]; Acrylic, After test): 1.73
- L ([2]; Acrylic, Before test): 62.97
- a ([2]; Acrylic, Before test): 2.52
- b ([2]; Acrylic, Before test): 0.79
- ΔE ([2]; Acrylic, before and after the stability test): 13.65
- L ([2]; Bleached cotton, After test): 67.09
- a ([2]; Bleached cotton, After test): 2.56
- b ([2]; Bleached cotton, After test): −9.43
- L ([2]; Bleached cotton, Before test): 59.44
- a ([2]; Bleached cotton, Before test): 2.08
- b ([2]; Bleached cotton, Before test): −7.15
- ΔE ([2]; Bleached cotton, before and after the stability test): 8.00
- L ([2]; Diacetate, After test): 48.28
- a ([2]; Diacetate, After test): 7.64
- b ([2]; Diacetate, After test): −12.1
- L ([2]; Diacetate, Before test): 44.66
- a ([2]; Diacetate, Before test): 6.86
- b ([2]; Diacetate, Before test): −11.23
- ΔE ([2]; Diacetate, before and after the stability test): 3.80
- L ([2]; Nylon 6,6, After test): 36.95
- a ([2]; Nylon 6,6, After test): 5.38
- b ([2]; Nylon 6,6, After test): −21.45
- L ([2]; Nylon 6,6, Before test): 34.78
- a ([2]; Nylon 6,6, Before test): 4.7
- b ([2]; Nylon 6,6, Before test): −19.46
- ΔE ([2]; Nylon 6,6, before and after the stability test): 3.02
- L ([2]; Polyester, After test): 78.67
- a ([2]; Polyester, After test): 0.26
- b ([2]; Polyester, After test): 0.27
- L ([2]; Polyester, Before test): 69.07
- a ([2]; Polyester, Before test): 1.41
- b ([2]; Polyester, Before test): −0.67
- ΔE ([2]; Polyester, before and after the stability test): 9.71
- L ([2]; Wool, After test): 73.9
- a ([2]; Wool, After test): 1.48
- b ([2]; Wool, After test): 1.8
- L ([2]; Wool, Before test): 66.17
- a ([2]; Wool, Before test): 1.43
- b ([2]; Wool, Before test): 0.12
- ΔE ([2]; Wool, before and after the stability test): 7.91
- L [3, 4]: 62.36
- a [3, 4]: 1.52
- b [3, 4]: 0.96
- L ([3]; Acrylic, before test): 59.81
- a ([3]; Acrylic, before test): 2.39
- b ([3]; Acrylic, before test): 0.08
- ΔE ([3]; Acrylic): 2.83
- L [3, 5]: 58.38
- a [3, 5]: 3.17
- b [3, 5]: −5.79
- L ([3]; Bleached cotton, before test): 58.11
- a ([3]; Bleached cotton, before test): 3.63
- b ([3]; Bleached cotton, before test): −8.4
- ΔE ([3]; Bleached cotton): 2.66
- L [3, 6]: 43.08
- a [3, 6]: 10.1
- b [3, 6]: −9.59
- L ([3]; Diacetate, before test): 41.1
- a ([3]; Diacetate, before test): 9.04
- b ([3]; Diacetate, before test): −13.41
- ΔE ([3]; Diacetate): 4.43
- L [3, 7]: 35.29
- a [3, 7]: 4.36
- b [3, 7]: −18.03
- L ([3]; Nylon 6,6, before test): 34.58
- a ([3]; Nylon 6,6, before test): 4.58
- b ([3]; Nylon 6,6, before test): −19.61
- ΔE ([3]; Nylon 6,6): 1.75
- L [3, 8]: 68.13
- a [3, 8]: 1.99
- b [3, 8]: −0.71
- L ([3]; Polyester, before test): 67.13
- a ([3]; Polyester, before test): 1.68
- b ([3]; Polyester, before test): −1.12
- ΔE ([3]; Polyester): 1.12
- L [3, 9]: 68.91
- a [3, 9]: 2.13
- b [3, 9]: 1.49
- L ([3]; Wool, before test): 68.14
- a ([3]; Wool, before test): 0.77
- b ([3]; Wool, before test): 1.77
- ΔE ([3]; Wool): 1.59
